Data on 1 compound can be found in patent US10828326B2, “Compositions and methods for treating and preventing venom related poisoning” (priority 2015, dated 2020).

The subject of this assay is C. atrox venom. The experiment in a line: Isolated venom exposure to FeCl3, CORM-2 or iCORM-2, then thrombelastography in human plasma (Example VI). To be noted: in words. The format is biochemical, Crotalus atrox. As to the method: C. atrox venom was obtained from the National Natural Toxins Research Center at Texas A&M University-Kingsville, Tex., USA. Venom was reconstituted in calcium-free phosphate buffered saline (PBS, Sigma-Aldrich, Saint Louis, Mo., USA), and stored at −80° C. Pooled human normal plasma anticoagulated with sodium citrate was obtained from George King Bio-Medical, Overland Park, Kans., USA. Ferric chloride (FeCl3, 99.9% pure), tricarbonyldichlororuthenium (II) dimer (CORM-2), and dimethyl sulfoxide (DMSO) were obtained from Sigma-Aldrich. The final concentrations of FeCl3 (dissolved in PBS) and CORM-2 (dissolved in DMSO) were 0-10 μM and 0-100 μM, respectively; these were the concentrations used in previous works involving the effects of modifying fibrinogen prior to venom exposure in plasma.
To increase the detection of effects of iron/CO on venom activity, the concentration of venom chosen for isolated exposure and for addition to plasma was twice the amount expected to eliminate coagulation based on previous work (see, Nielsen V G, Boyer L V. Iron and carbon monoxide attenuate degradation of plasmatic coagulation by Crotalus atrox venom. Blood Coagul Fibrinolysis. In press). A 1 ml quantity of a 200 μg/ml solution of venom in PBS was prepared for each condition subsequently presented. The conditions were: 1) 1% addition (v/v) of PBS and DMSO to PBS without venom; 2) 1% addition (v/v) of PBS and DMSO to PBS with venom; 3) 1% addition of FeCl3 and CORM-2 to PBS without venom; 4) 1% addition of FeCl3 and CORM-2 to PBS […]) 1% addition of FeCl3 and DMSO to PBS with venom; 6) 1% addition of CORM-2 to PBS with venom; and lastly, 7) 1% addition of PBS and iCORM-2 to PBS with venom. After 3 min of incubation at room temperature, 3.6 μl of solution from one of these conditions was placed into 326 μl of plasma and 10 μl of tissue factor reagent (0.1% final concentration in distilled water; Diagnostica Stago S.A.S., Asnieres sur Seine, France) in a disposable cup in a computer-controlled Thrombelastograph® hemostasis system (Model 5000, Haemonetics Inc., Braintree, Mass., USA). After test solution addition, 20 μl of 200 mM CaCl2 was immediately added to initiate clotting. Data were collected at 37° C. for 15 min. […] 2014; 25(8):801-805) were determined: time to maximum rate of thrombus generation (TMRTG): this is the time interval (min) observed prior to maximum speed of clot growth; maximum rate of thrombus generation (MRTG): this is the maximum velocity of clot growth observed (dynes/cm^2/sec); and total thrombus generation (TTG, dynes/cm^2), the final viscoelastic resistance observed after clot formation. […]

On to `[Cl][Fe]([Cl])[Cl]` [iron, ferric chloride], for which the “effects on C. atrox venom activity on plasmatic coagulation” value (isolated venom exposure) is listed as “no appreciable effects”. The “coagulation kinetic parameters of plasma after addition of PBS with venom exposed to the agent” value (venom 2 μg/ml final, 10 μM FeCl3, 100 μM CORM-2 or iCORM-2) is recorded as “absence of coagulation not different from samples exposed to venom alone”.
